Experimental findings from patent publication US8163793B2, “Proline derivatives” (Hoffman-La Roche Inc., priority 2009, dated 2012) are described below.

SMILES strings stand for the structures. Counter-ions that a name gives are not always drawn.

One may read the IC50 as the midpoint of a concentration-inhibition curve.

Test [1] concerns the target Cat L (UniProt P07711). The test is described as follows: Cathepsin enzyme inhibition assay (fluorogenic peptide substrate Z-Val-Val-Arg-AMC), Cathepsin L. Type of test: biochemical, human and mouse. The note with it: enzyme 1 nM, substrate 20 μM, pH 6.5; read-out: CatL IC50. The method in brief: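 Cathepsin L at 1 nM was mixed with compound, then started with 20 μM Z-Val-Val-Arg-AMC in pH 6.5 potassium phosphate with EDTA, Triton X-100 and 5 mM DTT. AMC fluorescence (ex 360/em 465 nm) was followed over 20 min. IC50 is given in μM.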

The target of test [2] is Cathepsin S (UniProt P25774). The test is described as follows: Cathepsin enzyme inhibition assay (fluorogenic peptide substrate Z-Val-Val-Arg-AMC), Cathepsin S. The following applies: enzyme 1 nM, substrate 20 μM, pH 6.5; read-out: CatS IC50. The class given is biochemical, human and mouse. The method in brief:
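Human or mouse cathepsin S (1 nM) was run in 100 mM potassium phosphate pH 6.5 with 5 mM EDTA, 0.001% Triton X-100 and 5 mM DTT. The rise in AMC fluorescence from cleavage was measured, and IC50 values were calculated by standard methods and expressed in μM.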

Regarding `N#CC1(NC(=O)[C@@H]2C[C@@H](S(=O)(=O)c3ccccc3C(F)(F)F)CN2CC(F)(F)C(F)(F)F)CC1` [Example 109, (2S,4R)-1-(2,2,3,3,3-Pentafluoro-propyl)-4-(2-trifluoromethyl-benzenesulfonyl)-pyrrolidine-2-carboxylic acid (1-cyano-cyclopropyl)-amide], the IC50 is at least 25000 nM in test [1] and 12.7 nM in test [2].
Regarding `COCCN1C[C@H](S(=O)(=O)c2ccccc2C(F)(F)F)C[C@H]1C(=O)NC1(C#N)CC1` [Example 110, (2S,4R)-1-(2-Methoxy-ethyl)-4-(2-trifluoromethyl-benzenesulfonyl)-pyrrolidine-2-carboxylic Acid (1-cyano-cyclopropyl)-amide], the IC50 in test [1] is at least 25000 nM; in test [2], 60.5 nM.
The like results for `CC(=O)N1C[C@H](S(=O)(=O)c2ccc(-n3cccn3)cc2C(F)(F)F)C[C@H]1C(=O)NC1(C#N)CC1` [Example 111, (2S,4R)-1-Acetyl-4-(4-pyrazol-1-yl-2-trifluoromethyl-benzenesulfonyl)-pyrrolidine-2-carboxylic acid (1-cyano-cyclopropyl)-amide] were, in that order, at least 25000 nM and 0.7 nM.
For `CC(=O)N1C[C@H](S(=O)(=O)c2ccc(-n3ccnc3)cc2C(F)(F)F)C[C@H]1C(=O)NC1(C#N)CC1` [Example 112, (2S,4R)-1-Acetyl-4-(4-imidazol-1-yl-2-trifluoromethyl-benzenesulfonyl)-pyrrolidine-2-carboxylic acid (1-cyano-cyclopropyl)-amide], the figures for the IC50 in test [1] and in test [2] were at least 25000 nM and 0.8 nM, respectively.
The like results for `CC(C)CS(=O)(=O)[C@@H]1C[C@@H](C(=O)NC2(C#N)CC2)N(C(=O)OC(C)(C)C)C1` [Example 113, (2S,4R)-2-(1-Cyano-cyclopropylcarbamoyl)-4-(2-methyl-propane-1-sulfonyl)-pyrrolidine-1-carboxylic acid tert-butyl ester] were, in that order, at least 25000 nM and 3130 nM.
The like results for `CC(C)CS(=O)(=O)[C@H]1CN[C@H](C(=O)NC2(C#N)CC2)C1` [Example 114, (2S,4R)-4-(2-Methyl-propane-1-sulfonyl)-pyrrolidine-2-carboxylic acid (1-cyano-cyclopropyl)-amide Hydrochloride] were, in that order, at least 25000 nM and 3500 nM.
The like results for `N#CCNC(=O)C12CC(S(=O)(=O)c3ccccc3)CN1CC(F)(F)C2` (stereo not shown) [Example 115, 6-Benzenesulfonyl-2,2-difluoro-tetrahydro-pyrrolizine-7a-carboxylic acid cyanomethyl-amide] were, in that order, 3470 nM and 48 nM.
`N#CCNC(=O)C12CC(F)(F)CN1CCC2S(=O)(=O)c1ccccc1` (stereo not shown) [Example 116, 1-Benzenesulfonyl-6,6-difluoro-tetrahydro-pyrrolizine-7a-carboxylic acid cyanomethyl-amide, diasteromer Δ1]: the IC50 in test [1] was at least 25000 nM; in test [2], 35.5 nM.
For the molecule `N#CCNC(=O)C12CC(F)(F)CN1CCC2S(=O)(=O)c1ccccc1` (stereo not shown) [Example 117, 1-Benzenesulfonyl-6,6-difluoro-tetrahydro-pyrrolizine-7a-carboxylic acid cyanomethyl-amide, diasteromer Δ2], the IC50 is at least 25000 nM in test [1] and 86.5 nM in test [2].
`COC(=O)c1ccc(C(=O)N2C[C@H](S(=O)(=O)c3ccccc3C(F)(F)F)C[C@H]2C(=O)NC2(C#N)CC2)cc1` [Example 118, 4-[(2S,4R)-2-(1-Cyano-cyclopropylcarbamoyl)-4-(2-trifluoromethyl-benzenesulfonyl)-pyrrolidine-1-carbonyl]-benzoic acid methyl ester]: the IC50 was at least 25000 nM in test [1] and 0.9 nM in test [2].
`CC(C)(C)OC(=O)N1C[C@H](S(=O)(=O)c2ccc(-n3cccn3)cc2Cl)C[C@H]1C(=O)NC1(C#N)CC1` [Example 120, (2S,4R)-4-(2-Chloro-4-pyrazol-1-yl-benzenesulfonyl)-2-(1-cyano-cyclopropylcarbamoyl)-pyrrolidine-1-carboxylic acid tert-butyl ester]: the results for the IC50 in test [1] and in test [2] were at least 25000 nM and 2.8 nM, respectively.
